Where “and” joins values, the source holds several entries; their conditions need not be identical. Equal values may be shown once.
Tests used:
HIS-CREB protein = molecular target: T1, HIS-CREB protein (Homo sapiens, UniProt P16220); test: Isothermal titration calorimetry; assay type: binding; settings: HIS-CREB titrated into APC solution, one-site model; read-out: equilibrium dissociation constant (KD) between APC and CREB
T1 construct: made in house
Description: Isothermal titration calorimetry was performed using a MicroCal iTC200 calorimeter (Freiburg, Germany). The purified HIS-CREB protein and APC were diluted in buffer (PBS with 500 mM NaCl and 10% glycine, pH 8.0). APC solution was titrated by injection of HIS-CREB. The originally released heat from molecules binding was recorded and analyzed by Origin9 software (Origin Lab) supplied with the instrument.

CREB / CRTC1 interaction = molecular target: T2, CREB / CRTC1 interaction (Homo sapiens, UniProt P16220); test: Co-immunoprecipitation of GFP-CRTC1 by MYC-CREB, HEK293T; assay type: cell-based; settings: overexpression HEK293T cells, APC 10 μM
T2 construct: expressed in transfected cells; host or cells: HEK293T
T2 sequence (P16220 whole entry): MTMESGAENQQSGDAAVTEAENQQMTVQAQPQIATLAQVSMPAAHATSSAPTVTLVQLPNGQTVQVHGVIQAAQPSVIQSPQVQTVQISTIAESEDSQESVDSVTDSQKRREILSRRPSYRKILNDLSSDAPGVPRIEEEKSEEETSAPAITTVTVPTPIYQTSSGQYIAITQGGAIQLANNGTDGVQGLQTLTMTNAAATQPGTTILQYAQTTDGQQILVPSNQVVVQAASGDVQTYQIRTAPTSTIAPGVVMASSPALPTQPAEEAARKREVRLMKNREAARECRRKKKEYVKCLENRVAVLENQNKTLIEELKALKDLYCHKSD
Description: 1 Supplementary Figure 2.
2 a) Immunoblot of HA-P300 recovered from HEK293T cell lysate using GST-CREB beads. APC
3 (10 μM) was incubated with cells for 1-h before FKS (10 nM) stimulation and was included in the
4 following pull-down mixtures (n=3). One of two independent experiments presented here.
5 b) Immunoblot for recovered GFP-CRTC1 or (c) GFP-CRTC3 immunoprecipitated by MYC-CREB
6 from overexpression HEK293T cell line. APC (10 μM) was incubated with cells for 1-h before FKS
7 (10 nM) stimulation and was included in the following pull-down mixtures. One of two independent
8 experiments presented here.
9 d) SPR sonogram traces of APC binding with HIS-CREB proteins immobilized to NTA-chip. The
10 concentration series of APC was as indicated.
11 e) SPR sonogram traces of APC flowing through HIS-CRTC2-S171A proteins immobilized on
12 NTA-chip. The concentration of APC was as indicated.
13 f) The luciferase enzymatic activity of HEK293T incubated with APC. Cells over-expressed
14 luciferase CRE-Luc reporter and were stimulated by FSK (10 nM) for 5-h before lysis, which was
15 then incubated with APC (concentration indicated) for 30 min before luciferase activity determination
16 (n=3 per treatment). Data are represented as mean ± SEM. *, p < 0.05; **, p < 0.01; p values were
17 determined by one-way ANOVA followed Dunnett’s multiple comparisons test. […]

luciferase = molecular target: T3, luciferase (Photinus pyralis, UniProt P08659); test: Luciferase enzymatic assay; assay type: biochemical; settings: lysate of HEK293T cells expressing CRE-Luc, 30 min
T3 construct: expressed in transfected cells; host or cells: HEK293T (lysate incubated with compound)
T3 sequence (P08659 whole entry): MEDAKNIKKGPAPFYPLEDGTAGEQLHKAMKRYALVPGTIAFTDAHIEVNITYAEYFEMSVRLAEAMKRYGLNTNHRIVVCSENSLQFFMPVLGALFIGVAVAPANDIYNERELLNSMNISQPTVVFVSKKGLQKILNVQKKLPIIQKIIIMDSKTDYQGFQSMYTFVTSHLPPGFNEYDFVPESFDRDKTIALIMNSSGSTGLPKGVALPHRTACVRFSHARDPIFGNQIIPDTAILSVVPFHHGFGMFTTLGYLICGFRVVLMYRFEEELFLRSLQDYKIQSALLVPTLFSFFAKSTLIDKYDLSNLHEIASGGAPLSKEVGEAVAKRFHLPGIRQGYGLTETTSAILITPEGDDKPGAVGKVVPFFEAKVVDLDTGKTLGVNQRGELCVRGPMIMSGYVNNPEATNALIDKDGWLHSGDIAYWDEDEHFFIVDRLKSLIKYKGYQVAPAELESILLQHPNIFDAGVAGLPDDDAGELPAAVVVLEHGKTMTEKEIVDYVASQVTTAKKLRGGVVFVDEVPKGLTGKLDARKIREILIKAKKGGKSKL
Description: HEK293T cells (4 × 10^5 per well of 24-well-plate) were transfected with plasmids expressing CRE-luciferase reporter (50 ng) together with RSV-β-gal (20 ng) by PEI-media overnight and induced by FSK (forskolin 10 nM) for 6-h. The cells were then collected in the lysis buffer (25 mM Gly-gly, 15 mM MgSO4, 4 mM EGTA, 1% V/V Triton X-100, 1 mM DTT, pH 7.8), mixed with an equal volume of luciferase substrate buffer (25 mM Gly-gly, 15 mM MgSO4, 4 mM EGTA, 250 mM potassium phosphate, 2.5 mM ATP, 2 mM DTT, 5 mg/mL luciferin, pH 7.8), and subjected to EnVision Multimode Plate Reader (Perkin/Elmer) to determine generated fluorescent signals.
13 d) Luciferase enzyme activity. The luciferase enzymatic activity from HEK293T cells incubated
The cells ectopically expressed luciferase (CRE-Luc) and were stimulated with FSK (10
15 nM) for 5 h before lysis, and then incubated with various concentrations of propolis for 30 min before
16 luciferase activity determination. One of two independent experiments presented here. Data are
17 represented as mean ± SEM (n=3 per treatment). ns, p > 0.05; *, p < 0.05; **, p < 0.01; p values were
18 determined by one-way ANOVA followed Dunnett’s multiple comparisons test.
13 f) The luciferase enzymatic activity of HEK293T incubated with APC. Cells over-expressed […]

HEK293T cells = test: MTT assay, HEK293T cells; assay type: cell-based, human; settings: Supp. Fig.10 b; individual replicates; Ctrl about 100
Description: 1 Supplementary Figure 10. A57 is novel inhibitor of the CREB/CRTC2 protein complex.
2 a) The inhibitory-activity of A57 as determined by two-hybrid reporter assay. HEK293T cells were
3 co-transfected with CREB/CRTC2 two-hybrid reporter system plasmids, following incubation with
4 indicated small molecules (10 µM) overnight before luciferase reporter assays (n=4 per treatment).
5 One of three independent experiments is shown here. Data are represented as mean ± SEM. *,
6 p < 0.05; **, p < 0.01; p values were determined by one-way ANOVA followed Dunnett’s multiple
8 b) Combinatorial analysis of the cell toxicity and inhibitory activity of A57. The CREB/CRTC2-two
9 hybrid reporter activity (as a normalized percentage) is the X-axis, and the cell activity tested by MTT
10 assay (as a normalized percentage) is the Y-axis. n=3.
11 c) Immunoblot of P-CREB and CRTC2 de-phosphorylation in primary hepatocytes incubated with
12 A57 and APC (10 µM) 1-h prior to glucagon (100 nM) stimulation for 30 min. One result from three
13 experiments is shown here (top), and relative P-CREB normalized by CREB is presented as a bar
14 graph (bottom, n=3). […]
15 values were determined by two-way ANOVA followed Bonferroni’s multiple comparisons test. […]
18 as mean ± SEM. ns, p > 0.05; *, p < 0.05; **, p < 0.01; p values were determined by two-way ANOVA […]

FGF21 = test: Immunoblotting of plasma and liver FGF21; assay type: in vivo, mouse
Description: 1 Supplementary Figure 10. A57 is novel inhibitor of the CREB/CRTC2 protein complex. […]
20 e) Immunoblotting of plasma and liver FGF21 protein in Crtc2KO mice, which induced by a high
21 fat diet for 13 weeks then orally administered APC (20 mg/kg), A57 (20 mg/kg) or vehicle (VEH) for
1 3 weeks. Two technological repeats present a composite pool including 5 mice per group. One
2 representative result from three-independent experiments is shown here.
3 f) Relative plasma FGF21 (top) and liver FGF21 (bottom), normalized by R250 signaling or
4 ACTIN respectively, is shown here as a bar graph. Data are represented as mean ± SEM (n=5 per
5 group, two technological repeats present a composite pool). ns, p > 0.05; *, p < 0.05; **, p < 0.01; p
7 for this figure are provided as a Source data file.

T1 sequence (P16220 whole entry): as the sequence (P16220 whole entry) above

For `CC(C)=CCc1cc(C=CC(=O)O)cc(CC=C(C)C)c1O` [APC, 3,5-diprenyl-4-hydroxycinnamic acid], the Kd (HIS-CREB protein) was ~3.2 µM and 3.2 µM, the “interaction of CREB and CRTC1” value (CREB / CRTC1 interaction) was “attenuated” and the “effect on luciferase enzymatic activity” value (luciferase) was “no effect”. The Cell activity % (HEK293T cells) was 95.723% and 93.186% and 92.837%, the “plasma and liver FGF21” value (FGF21; Crtc2KO mice, oral 20 mg/kg, 3 weeks) was “did not further increase” and the “liver FGF21 in CRTC2, group mean (Mean 2)” value (FGF21; Supp. Fig.10 f down, CRTC2KO mice, n=3, VEH mean 2.47) was 2.579. For the same molecule, the “Bands density of FGF21 in the liver” value (FGF21; Supp. Fig.10 f down, CT2KO (CRTC2KO) mice, oral, individual replicates, Veh about 2.47) was 2.47 and 2.45 and 2.816, the “Bands density, plasma FGF21 in CRTC2” value (FGF21; Supp. Fig.10 f up, CRTC2KO mice, individual replicates, VEH about 2.31) was 2.4404 and 2.52 and 2.451 and the “Bands density, plasma FGF21 in CRTC2, group mean (Mean 2)” value (FGF21; Supp. Fig.10 f up, CRTC2KO mice, n=3, VEH mean 2.31) was 2.47.

From publication PMC8752738, “A propolis-derived small molecule ameliorates metabolic syndrome in obese mice by targeting the CREB/CRTC2 transcriptional complex” (Nature Communications, 2022)
